Assay results from US9434687B2, “Detection of synthetic cannabinoids” (priority 2011, dated 2016).
Where two headings read alike, the source gives them in different places.

Key:
Assay type in all cases: binding, sheep
[1] = system: IgG fraction of antiserum raised to Immunogen I; settings: Antibody to Immunogen I, cross-reactants at 100 ng/ml, 1000 ng/ml, standard JWH-018
Protocol: (§1) An aqueous solution of each immunogen was formulated with Freund's Complete Adjuvant (FCA) to form an emulsion consisting of 2 mg/ml*immunogen in 50% (v/v) FCA. Three sheep were immunised with this emulsion (1° immunisation), 0.25 ml being intramuscularly injected at each of four sites in the flank of each animal. Subsequent immunizations (boosts) contained 1 mg/ml*immunogen. All boosts were emulsified in 50% (v/v) Freund's Incomplete Adjuvant (FIA) and were administered in the same manner as the 1° immunisation, at monthly intervals. Blood sampling took place 7 to 14 days after each boost. *The general procedure for immunogen administration is outlined above, however, it was necessary to deviate from this protocol in some cases, due to reduced immunogen concentrations (Immunogens II, IV, VII and VIII) and/or amount available (Immunogen VIII). Any deviations from the protocol described are outlined in Table 5 below and highlighted in bold.
(§2) The wells of an enhanced binding 96 well polystyrene microtiter plate were coated with IgG fraction of antiserum raised to Immunogen I or II, diluted in 10 mM Tris, pH8.5 (125 μl/well). The appropriate antibody coating dilution was determined using standard ELISA checkerboard techniques. The plate was incubated overnight at 4° C., washed 4 times over 10 minutes with Tris buffered saline containing Tween 20 (TBST) and tapped dry. Standard solutions (JWH-018 for Immunogens I and II) were applied at 0, 0.625, 1.25, 2.5, 5, 10, 20 and 40 ng/ml and 50 μl of each was added to the appropriate wells. 75 μl of conjugate (appropriate hapten-HRP) diluted in Tris buffer (pH 7.2) containing EDTA, D-mannitol, sucrose, thimerosal and BSA, was added to each of the wells. The appropriate dilution of conjugate was also determined using standard ELISA checkerboard techniques. The plate was incubated at 25° C. for 1 hour. Excess unbound conjugate was removed by washing 6 times over a 10 minute period with TBST. 125 μl of tetramethylbenzidine (TMB) substrate solution was added to each well of the plate that was then incubated for 20 minutes in the dark at room temperature. The reaction was terminated by addition of 125 μl 0.2M H2SO4 to each well. The absorbance was then measured at 450 nm using a microtiter plate reader. The data are inputted to a computer program called ‘KC Junior’. It is a 4 parameter fit curve and allow the calculation of concentrations between the standard runs. This program is used to calculate the IC50s by dividing the 0 ng/ml OD value by 2 and obtaining the concentration value from the curve for this OD.
In a similar manner to that described above, the wells of a 96-well microtiter plate were coated with the IgG fraction of the antiserum raised to Immunogens I or II. Standard solutions (JWH-018 for Immunogen I and II) were applied at 0, 0.625, 1.25, 2.5, 5, 10, 20 and 40 ng/ml and conjugate was employed as detection reagent.
(§3) The data set out in Tables 7-10 are generated using antibodies raised against the indicated Immunogens in a competitive binding assay with the indicated tracers, using the indicated standards
(§4) In order to determine the specificity of the competitive ELISAs, standard solutions of a range of structurally similar synthetic cannabinoids and their metabolites were prepared in TBST.
(§5) Using the calibration curves generated and employing a single level of cross reactants, these were used to determine the cross-reactivity of each immunoassay with these substances. These are the standards used for the IC50 and cross-reactivity data generation: […]

[2] = system: IgG fraction of antiserum raised to Immunogen VIII; settings: Antibody to Immunogen VIII, cross-reactants at 100 ng/ml, 1000 ng/ml, standard JWH-018
Protocol: as §1, §2
(§6) In a similar manner to that described above, the wells of a 96-well microtiter plate were coated with the IgG fraction of the antiserum raised to Immunogens IV, VII or VIII. Standard solutions (JWH-018 for Immunogens IV and VIII, JWH-015 for Immunogen VII) were prepared in TBST at 0, 1.25, 2.5, 5, 10, 20, 40 and 80 ng/ml and conjugate was employed as detection reagent.
as §3, §4, §5

[3] = system: IgG fraction of antiserum raised to Immunogen VII; settings: Antibody to Immunogen VII, cross-reactants at 100 ng/ml, 1000 ng/ml, standard JWH-015
Protocol: as §1, §2, §6, §3, §4, §5

[4] = system: IgG fraction of antiserum raised to Immunogen IV; settings: Antibody to Immunogen IV, cross-reactants at 100 ng/ml, 1000 ng/ml, standard JWH-018
Protocol: as §1, §2, §6, §3, §4, §5

SMILES: CCCCCCC(C)(C)c1ccc([C@@H]2C[C@H](O)CC[C@H]2CCCO)c(O)c1 (racemic) [(+−)-CP 55,940]
- % B/B0 [1]: 100.61%
- % B/B0 [2]: 100.25%
- % B/B0 [3]: 100.25%
- % B/B0 [4]: 94.60%

SMILES: CCCCCn1c(O)c(C(=O)c2cccc3ccccc23)c2ccccc21 [2-OH JWH-018, JWH-018 2-hydroxyindole metabolite]
- % B/B0 [1]: 95.37%
- % B/B0 [2]: 101.36%
- % B/B0 [3]: 95.08%
- % B/B0 [4]: 100.14%

SMILES: CCCCn1c(O)c(C(=O)c2cccc3ccccc23)c2ccccc21 [2-OH JWH-073, JWH-073 2-hydroxyindole metabolite]
- % B/B0 [1]: 89.62%
- % B/B0 [2]: 93.42%
- % B/B0 [3]: 92.65%
- % B/B0 [4]: 89.63%

SMILES: COc1ccc(C(=O)c2c(C)n(CCN3CCOCC3)c3cc(I)ccc23)cc1 [AM-630, 6-Iodopravadoline]
- % B/B0 [1]: 91.12%
- % B/B0 [2]: 89.88%
- % B/B0 [3]: 99.88%
- % B/B0 [4]: 90.17%

SMILES: O=C(c1ccc(I)cc1)c1cn(CCCCCF)c2ccccc12 [AM-694 4-iodo isomer]
- % B/B0 [1]: 73.79%
- % B/B0 [2]: 13.42%
- % B/B0 [3]: 98.71%
- % B/B0 [4]: 27.66%

SMILES: CN1CCCCC1Cn1cc(C(=O)c2cc([N+](=O)[O-])ccc2I)c2ccccc21 (stereo not drawn) [AM-1241]
- % B/B0 [1]: 85.61%
- % B/B0 [2]: 102.46%
- % B/B0 [3]: 94.96%
- % B/B0 [4]: 91.38%

SMILES: CCCCCCC(C)(C)C1=CC(=O)C(C2CCCC(O)C2)=CC1=O (stereo not drawn) [CP-47,497-para-quinone analogue]
- % B/B0 [1]: 100.26%
- % B/B0 [2]: 88.11%
- % B/B0 [3]: 93.29%
- % B/B0 [4]: 97.33%

SMILES: CCCCCCCC(C)(C)c1ccc(C2CCCC(O)C2)c(O)c1 (stereo not drawn) [CP-49,497-C8-homologue]
- % B/B0 [1]: 101.11%
- % B/B0 [2]: 104.88%
- % B/B0 [3]: 98.55%
- % B/B0 [4]: 94.66%

SMILES: CCCCCCC(C)(C)c1cc(O)c2c(c1)OC(C)(C)[C@@H]1CC=C(CO)C[C@@H]21 [HU-210]
- % B/B0 [1]: 102.57%
- % B/B0 [2]: 93.42%
- % B/B0 [3]: 100.39%
- % B/B0 [4]: 92.53%

SMILES: CCCCCCC(C)(C)c1cc(O)c2c(c1)OC(C)(C)[C@H]1CC=C(CO)C[C@H]21 [HU-211, Dexanabinol]
- % B/B0 [1]: 103.36%
- % B/B0 [2]: 92.70%
- % B/B0 [3]: 96.78%
- % B/B0 [4]: 93.37%

SMILES: CCCCCCC(C)(C)c1cc(OC)c([C@@H]2C=C(CO)[C@@H]3C[C@H]2C3(C)C)c(OC)c1 [HU-308]
- % B/B0 [1]: 101.35%
- % B/B0 [2]: 89.77%
- % B/B0 [3]: 95.95%
- % B/B0 [4]: 94.03%

SMILES: CCCCCn1cc(C(=O)c2ccc3ccccc3c2)c2ccccc21 [JWH 018 2′-naphthyl isomer]
- % B/B0 [1]: 75.90%
- % B/B0 [2]: 14.94%
- % B/B0 [3]: 94.98%
- % B/B0 [4]: 28.13%

SMILES: CCCCCn1cc(C(=O)C23CC4CC(CC(C4)C2)C3)c2ccccc21 [JWH 018 adamantyl analog]
- % B/B0 [1]: 95.94%
- % B/B0 [2]: 10.97%
- % B/B0 [3]: 94.48%
- % B/B0 [4]: 99.02%

SMILES: CCCCCn1cc(C(=O)Cc2cccc(Cl)c2)c2ccccc21 [JWH 203 3-chloro isomer]
- % B/B0 [1]: 95.59%
- % B/B0 [2]: 10.34%
- % B/B0 [3]: 97.42%
- % B/B0 [4]: 55.09%

SMILES: CCCCCn1cc(C(=O)Cc2ccccc2OC)c2cc(O)ccc21 [JWH 250 5-hydroxyindole metabolite]
- % B/B0 [1]: 100.75%
- % B/B0 [2]: 67.19%
- % B/B0 [3]: 99.88%
- % B/B0 [4]: 84.05%

SMILES: COc1ccccc1CC(=O)c1cn(CCCCCC(=O)O)c2ccccc12 [JWH 250 N-(5-carboxypentyl) metabolite]
- % B/B0 [1]: 86.21%
- % B/B0 [2]: 89.30%
- % B/B0 [3]: 97.60%
- % B/B0 [4]: 89.88%

SMILES: COc1ccccc1CC(=O)c1cn(CCCCCO)c2ccccc12 [JWH 250 N-(5-hydroxypentyl) metabolite]
- % B/B0 [1]: 75.47%
- % B/B0 [2]: 42.79%
- % B/B0 [3]: 96.13%
- % B/B0 [4]: 76.22%

SMILES: CCCCCn1cc(C(=O)Cc2cccc(C)c2)c2ccccc21 [JWH 251 3-methylphenyl isomer]
- % B/B0 [1]: 85.90%
- % B/B0 [2]: 8.97%
- % B/B0 [3]: 99.32%
- % B/B0 [4]: 51.15%

SMILES: CCCCCC(C)n1c(C)c(C(=O)c2cccc3ccccc23)c2ccccc21 (stereo not drawn) [JWH-011]
- % B/B0 [1]: 62.13%
- % B/B0 [2]: 97.49%
- % B/B0 [3]: 57.43%
- % B/B0 [4]: 99.19%

SMILES: CCCCCn1ccc(C(=O)c2cccc3ccccc23)c1 [JWH-030]
- % B/B0 [1]: 61.17%
- % B/B0 [2]: 94.25%
- % B/B0 [3]: 89.66%
- % B/B0 [4]: 93.17%

SMILES: CCCCn1cc(C(=O)c2ccc(C)c3ccccc23)c2ccccc21 [JWH-073 4-methylnaphthyl analogue]
- % B/B0 [1]: 45.54%
- % B/B0 [2]: 19.75%
- % B/B0 [3]: 78.36%
- % B/B0 [4]: 7.01%

SMILES: CCCCCn1cc(C(=O)c2c(OC)ccc3ccccc23)c2ccccc21 [JWH-081 2-methoxynaphthyl isomer]
- % B/B0 [1]: 69.58%
- % B/B0 [2]: 58.20%
- % B/B0 [3]: 83.43%
- % B/B0 [4]: 27.67%

SMILES: CCCCCn1cc(C(=O)c2cccc3ccc(OC)cc23)c2ccccc21 [JWH-081 7-methoxynaphthyl isomer]
- % B/B0 [1]: 88.26%
- % B/B0 ([1]; listed as JWH-164): 91.86%
- % B/B0 [2]: 59.51%
- % B/B0 ([2]; listed as JWH-164): 57.93%
- % B/B0 [3]: 97.60%
- % B/B0 ([3]; listed as JWH-164): 96.13%
- % B/B0 [4]: 39.20%
- % B/B0 ([4]; listed as JWH-164): 36.14%

SMILES: COc1ccc(C(=O)c2cn(CCCCCO)c3ccccc23)c2ccccc12 [JWH-081 N-(5-hydroxypentyl) metabolite]
- % B/B0 [1]: 61.86%
- % B/B0 [2]: 47.16%
- % B/B0 [3]: 89.31%
- % B/B0 [4]: 26.31%

SMILES: CCCCCn1c(C)c(C(=O)c2ccc(OC)c3ccccc23)c2ccccc21 [JWH-098]
- % B/B0 [1]: 77.58%
- % B/B0 [2]: 59.80%
- % B/B0 [3]: 82.85%
- % B/B0 [4]: 44.03%

SMILES: CCCC(C)(C)c1ccc2c(c1)OC(C)(C)[C@@H]1CC=C(C)C[C@@H]21 [JWH-133]
- % B/B0 [1]: 100.56%
- % B/B0 [2]: 100.00%
- % B/B0 [3]: 101.84%
- % B/B0 [4]: 98.18%

SMILES: CCCCCn1cc(C(=O)c2ccc(CCC)c3ccccc23)c2ccccc21 [JWH-182]
- % B/B0 [1]: 107.08%
- % B/B0 [2]: 30.65%
- % B/B0 [3]: 98.40%
- % B/B0 [4]: 12.83%

SMILES: O=C(c1ccc2ccccc2c1)c1cn(CCN2CCOCC2)c2ccccc12 [JWH-200 2′-naphthyl isomer]
- % B/B0 [1]: 28.57%
- % B/B0 [2]: 96.12%
- % B/B0 [3]: 94.65%
- % B/B0 [4]: 92.29%

SMILES: CCCCCn1cc(C(=O)Cc2ccc(OC)cc2)c2ccccc21 [JWH-201]
- % B/B0 [1]: 77.14%
- % B/B0 [2]: 8.26%
- % B/B0 [3]: 100.25%
- % B/B0 [4]: 59.03%
